system: T-cell factor (TCF)-luciferase reporter using Wnt pathway as index; test: Inhibitory activity against TCF-luciferase reporter using Wnt pathway as index (DLD-1/TCF-Luc cells); format: cell-based, human; details: 1 μmol/L; DLD-1/TCF-Luc cells; luciferase activity after 18 hours
Protocol: Test Example 1: Inhibitory Activity Against T-Cell Factor (TCF)-Luciferase Reporter Using Wnt Pathway as Index
The inhibitory activity of test compounds against Wnt pathway was evaluated by the following method.
A human colorectal adenocarcinoma cell line DLD-1 (Japanese Collection of Research Bioresources) was cultured in RPMI-1640 medium (Gibco/Life Technologies, Inc.) containing 10% fetal bovine serum (Gibco/Life Technologies, Inc.), 10 mmol/L of a 4-(2-hydroxyethyl)-1-piperazineethanesulfonic acid (HEPES) buffer solution (Gibco/Life Technologies, Inc.), 1 mmol/L of a sodium pyruvate solution (Gibco/Life Technologies, Inc.), 4.5 g/L of a D-(+)-glucose solution (Sigma-Aldrich, Inc.), 100 units/mL penicillin (Gibco/Life Technologies, Inc.) and 100 μg/mL of streptomycin (Gibco/Life Technologies, Inc.) under the conditions of 37° C. and 5% carbon dioxide gas. The DLD-1 cells were seeded in a 10 cm dish, and 20 μg of a luciferase gene plasmid pGL4.27 having a TCF responsive sequence inserted therein was transfected into the cells using 10 μL of Attractene (Qiagen, Inc.) according to the protocol attached to the product. A stably expressing cell line (DLD-1/TCF-Luc) was selected using […] of hygromycin B (Wako Pure Chemical Industries Ltd.). The DLD-1/TCF-Luc cells were detached with trypsin and seeded in a 384-well plate, and a test compound was added at different concentrations. After 18 hours, the luciferase activity was measured using Steady-Glo™ Luciferase Assay System (Promega, Inc.).
The inhibition ratio was obtained according to the following formula 1. The inhibition ratio (%) of the compound of the present invention at 1 μmol/L against the TCF-luciferase reporter using the Wnt pathway as an index is shown in Table 6. [Math. 1] Inhibition ratio (%)=100−{(luciferase activity when test compound was added)−(luciferase activity of blank)}/{(luciferase activity of control)−(luciferase activity of blank)}×100 Formula 1

Molecule | Inhibition ratio (%) at 1 μmol/L
CNC(=O)c1ccc2c(N3CCC(CN4Cc5ccccc5N(c5cccc(C#N)c5)C4=O)CC3)ncnc2c1 [Compound 26, 4-(4-{[1-(3-Cyanophenyl)-2-oxo-1,2-dihydroquinazolin-3(4H)-yl]methyl}piperidin-1-yl)-N-methylquinazoline-7-carboxamido] | 77%
N#Cc1cc(N2C(=O)N(CC3CCN(c4ncnc5cnc(C(N)=O)cc45)CC3)Cc3ncccc32)ccc1F [Compound 46, 4-(4-{[1-(3-Cyano-4-fluorophenyl)-2-oxo-1,2-dihydropyrido[3,2-d]pyrimidin-3(4H)-yl]methyl}piperidin-1-yl)pyrido[3,4-d]pyrimidine-6-carboxamido] | 84%
N#Cc1ccccc1CN1C(=O)N(CC2CCN(c3ncnc4cc5c(cc34)OCO5)CC2)Cc2ccccc21 [Compound 3, 2-[(3-{[1-([1,3]Dioxo[4,5-g]quinazolin-8-yl)piperidin-4-yl]methyl}-2-oxo-3,4-dihydroquinazolin-1(2H)-yl)methyl]benzo nitrile] | 77%
4-(3-{[1-(6-Aminopyrimido[3,4-d]pyrimidin-4-yl)piperidin-4-yl]methyl}-2-oxo-3,4-dihydroquinazolin-1(2H)-yl)picolinonitrile [Compound 33] | 82%
N#Cc1cc(N2C(=O)N(CC3CCN(c4ncnc5cnc(C(N)=O)cc45)CC3)Cc3ccccc32)ccc1F [Compound 45, 4-(4-{[1-(3-Cyano-4-fluorophenyl)-2-oxo-1,2-dihydroquinazolin-3(4H)-yl]methyl}piperidin-1-yl)pyrido[3,4-d]pyrimidine-6-carboxamido] | 86%
N#Cc1cc(N2C(=O)N(CC3CCN(c4ncnc5cc(C(N)=O)ccc45)CC3)Cc3ccccc32)ccn1 [Compound 28, 4-(4-{[1-(2-Cyanopyridin-4-yl)-2-oxo-1,2-dihydroquinazolin-3(4H)-yl]methyl}piperidin-1-yl)quinazoline-7-carboxamido] | 84%

same assay, conditions: Homo sapiens, DLD-1, 18 h, read-out: Inhibition ratio (%) at 1 μmol/L

Molecule | inhibition at 1 µM
N#Cc1cc(N2C(=O)N(CC3CCN(c4nccn5c(=O)[nH]nc45)CC3)Cc3ccccc32)ccn1 [Compound 39, 4-(2-Oxo-3-{[1-(3-oxo-2,3-dihydro-[1,2,4]triazolo[4,3-a]pyrazin-8-yl)piperidin-4-yl]methyl}-3,4-dihydroquinazolin-1(2H)-yl)picolinonitrile] | 89%
N#Cc1cc(N2C(=O)N(CC3CCN(c4nccc5c(=O)[nH]cnc45)CC3)Cc3ccccc32)ccn1 [Compound 42, 4-(2-Oxo-3-{[1-(4-oxo-3,4-dihydropyrido[3,4-d]pyrimidin-8-yl)piperidin-4-yl]methyl}-3,4-dihydroquinazolin-1(2H)-yl)picolinonitrile] | 81%
CN1CCN(C(=O)c2ccc3c(N4CCC(CN5Cc6ccccc6N(c6ccnc(C#N)c6)C5=O)CC4)ncnc3c2)CC1 [Compound 27, 4-[3-({1-[7-(4-Methylpiperazine-1-carbonyl)quinazolin-4-yl]piperidin-4-yl}methyl)-2-oxo-3,4-dihydroquinazolin-1(2H)-yl]picolinonitrile] | 88%
N#Cc1cccc(N2C(=O)N(CC3CCN(c4ncnc5c4COCC5)CC3)Cc3ccccc32)c1 [Compound 43, 3-(3-{[1-(7,8-Dihydro-5H-pyrano[4,3-d]pyrimidin-4-yl)piperidin-4-yl]methyl}-2-oxo-3,4-dihydroquinazolin-1(2H)-yl)benzonitrile] | 85%
N#Cc1cc(N2C(=O)N(CC3CCN(c4ncnc5[nH]ccc45)CC3)Cc3ccccc32)ccn1 [Compound 31, 4-(3-{[1-(7H-pyrrolo[2,3-d]pyrimidin-4-yl)piperidin-4-yl]methyl}-2-oxo-3,4-dihydroquinazolin-1(2H)-yl)picolinonitrile] | 74%

same assay, conditions: Homo sapiens; 1 μmol/L; DLD-1/TCF-Luc cells; luciferase activity after 18 hours; read-out: Inhibition ratio (%) at 1 μmol/L

Molecule | inhibition at 1 µM
COc1cc2ncnc(N3CCC(NC4Cc5ccccc5N(c5ccnc(C#N)c5)C4=O)CC3)c2cc1OC (centres unmarked) [Compound 19, 4-{3-[1-(6,7-Dimethoxyquinazolin-4-yl)piperidin-4-ylamino]-2-oxo-3,4-dihydroquinolin-1(2H)-yl}picolinonitrile] | 91%
COc1cc2ncnc(N3CCC(CN4Cc5ccccc5N(c5cc(C#N)ccn5)C4=O)CC3)c2cc1OC [Compound 10, 2-(3-{[1-(6,7-Dimethoxyquinazolin-4-yl)piperidin-4-yl]methyl}-2-oxo-3,4-dihydroquinazolin-1(2H)-yl)isonicotinonitrile] | 79%
N#Cc1ccccc1CN1C(=O)N(CC2CCN(c3nnnc4ccccc34)CC2)Cc2ccccc21 [Compound 4, 2-[(3-{[1-(Benzo[d][1,2,3]triazin-4-yl)piperidin-4-yl]methyl}-2-oxo-3,4-dihydroquinazolin-1(2H)-yl)methyl]benzonitrile] | 74%
COc1cc2ncnc(N3CCC(CN4Cc5ccccc5N(c5ccnc(C(N)=O)c5)C4=O)CC3)c2cc1OC [Compound 14, 4-(3-{[1-(6,7-Dimethoxyquinazolin-4-yl)piperidin-4-yl]methyl}-2-oxo-3,4-dihydroquinazolin-1(2H)-yl)picolinamide] | 76%
N#Cc1cc(N2C(=O)N(CC3CCN(c4ncnc5cc(C(N)=O)ncc45)CC3)Cc3cnccc32)ccc1F [Compound 52, 4-(4-{[1-(3-Cyano-4-fluorophenyl)-2-oxo-1,2-dihydropyrido[4,3-d]pyrimidin-3(4H)-yl]methyl}piperidin-1-yl)pyrido[4,3-d]pyrimidine-7-carboxamido] | 81%
N#Cc1ccc2c(c1)CN(CC1CCN(c3nccc4nc[nH]c(=O)c34)CC1)C(=O)N2c1ccnc(C(N)=O)c1 [Compound 51, 4-(6-Cyano-2-oxo-3-{[1-(4-oxo-3,4-dihydropyrido[4,3-d]pyrimidin-5-yl)piperidin-4-yl]methyl}-3,4-dihydroquinazolin-1(2H)-yl)picolinamide] | 90%
COc1cc2ncnc(N3CC(CN4Cc5ccccc5N(c5ccnc(C#N)c5)C4=O)C3)c2cc1OC [Compound 17, 4-(3-{[1-(6,7-Dimethoxyquinazolin-4-yl)azetidin-3-yl]methyl}-2-oxo-3,4-dihydroquinazolin-1(2H)-yl)picolinonitrile] | 76%
COc1cc2ncnc(N3CCC(Cn4c(=O)c5ccccc5n(-c5cccc(C#N)c5)c4=O)CC3)c2cc1OC [Compound 20, 3-(3-{[1-(6,7-Dimethoxyquinazolin-4-yl)piperidin-4-yl]methyl}-2,4-dioxo-3,4-dihydroquinazolin-1(2H)-yl)benzonitrile] | 83%
N#Cc1cc(N2C(=O)N(CC3CCN(c4nccc5nc[nH]c(=O)c45)CC3)Cc3cc(F)ccc32)ccn1 [Compound 49, 4-(6-Fluoro-2-oxo-3-{[1-(4-oxo-3,4-dihydropyrido[4,3-d]pyrimidin-5-yl)piperidin-4-yl]methyl}-3,4-dihydroquinazolin-1(2H)-yl)picolinonitrile] | 82%
COc1cc2ncnc(N3CCC(CN4Cc5ccccc5N(c5ccnc(C#N)n5)C4=O)CC3)c2cc1OC [Compound 11, 4-(3-{[1-(6,7-Dimethoxyquinazolin-4-yl)piperidin-4-yl]methyl}-2-oxo-3,4-dihydroquinazolin-1(2H)-yl)pyrimidine-2-carbonitrile] | 87%
COc1cc2ncnc(N3CCC(CN4Cc5ccccc5N(c5cccc(C#N)c5)C4=O)CC3)c2cc1OC [Compound 6, 3-(3-{[1-(6,7-Dimethoxyquinazolin-4-yl)piperidin-4-yl]methyl}-2-oxo-3,4-dihydroquinazolin-1(2H)-yl)benzonitrile] | 76%
N#Cc1cc(N2C(=O)N(CC3CCN(c4ncnc5cnccc45)CC3)Cc3cc(F)cnc32)ccn1 [Compound 23, 4-(6-Fluoro-2-oxo-3-{[1-(pyrido[3,4-d]pyrimidin-4-yl)piperidin-4-yl]methyl}-3,4-dihydropyrido[2,3-d]pyrimidin-1(2H)-yl)picolinonitrile] | 84%
